# Test system: HCV replicon RNA, genotype 1a (Huh-1a7 replicon cell line)
# Test: HCV Replicon Assay - qRT-PCR, genotype 1a replicon
# Assay type: cell-based, HCV (strain H77
# Conditions: Hepatitis C virus; HCV genotype 1a replicon, HCV RNA by qRT-PCR normalized to GAPDH RNA
# Text: HCV replicon cell lines (kindly provided by R. Bartenschlager) isolated from colonies as described by Lohman et al. (Lohman et al. (1999) Science 285: 110-113, expressly incorporated by reference in its entirety) and used for all experiments. One of the HCV replicon cell lines (strain Conl, genotype 1b) has the nucleic acid sequence set forth in EMBL Accession No.: AJ242651, the coding sequence of which is from nucleotides 1801 to 8406. Another replicon cell line (strain H77, genotype 1a) was constructed as described by Yi et al. (Yi et al. (2004) Journal of Virology 78(15):7904-15). The coding sequences of the published HCV replicons were synthesized and subsequently assembled in plasmids using standard molecular biology techniques.
# One replicon cell line (“SGR 11-7”) stably expresses HCV replicon RNA, genotype 1b, which consists of (i) the HCV 5′UTR fused to the first 12 amino acids of the capsid protein, (ii) the neomycin phosphotransferase gene (neo), (iii) the IRES from encephalomyocarditis virus (EMCV), and (iv) HCV NS2 to NS5B genes and the HCV 3′UTR. Another replicon cell line (“Huh-1a7”) described by Yi et al. (Yi et al. (2004) Journal of Virology 78(15):7904-15, expressly incorporated by reference in its entirety) stably expresses HCV replicon RNA, genotype 1a, which consists of (i) the HCV 5′UTR fused to the first 12 amino acids of the capsid protein, (ii) the HIV tat protein, (iii) the neomycin phosphotransferase gene (neo), (iv) the IRES from encephalomyocarditis virus (EMCV), and (v) HCV NS3 to NS5B genes that harbor cell culture adaptive mutations (Q1067R, K1691R, S2204I) and the HCV 3′UTR. […]
# EC50 values of single agent compounds were determined by HCV RNA detection using quantitative RT-PCR, according to the manufacturer's instructions, with a TAQMAN® One-Step RT-PCR Master Mix Reagents Kit (Cat# AB 4309169, Applied Biosystems) on an ABI Model 7500 thermocycler. EC50 values of combinations are similarly determined by HCV RNA detection using quantitative RT-PCR. The TAQMAN primers to use for detecting and quantifying HCV RNA obtained from Integrated DNA Technologies. HCV RNA is normalized to GAPDH RNA levels in drug-treated cells, which is detected and quantified using the Human GAPDH Endogenous Control Mix (Applied Biosystems, AB 4310884E). […] Chemical agent cytotoxicity is evaluated using an MTS assay according to the manufacturer's directions (Promega). […]
row,SMILES,EC50
1,[2H]C([2H])(O[P@@](=O)(N[C@@H](C)C(=O)OC(C)C)Oc1ccccc1)[C@H]1O[C@@H](n2ccc(=O)[nH]c2=O)[C@](C)(F)[C@@H]1O [Example 3],100 to 1000 nM
2,[2H][C@]1(CO[P@@](=O)(N[C@@H](C)C(=O)OC(C)C)Oc2ccccc2)O[C@@H](n2ccc(=O)[nH]c2=O)[C@](C)(F)[C@@H]1O [Example 2],100 to 1000 nM
3,[2H][C@@]1(O)[C@@H](CO[P@@](=O)(N[C@@H](C)C(=O)OC(C)C)Oc2ccccc2)O[C@@H](n2ccc(=O)[nH]c2=O)[C@]1(C)F [Example 1],100 to 1000 nM
4,[2H]C([2H])(O[P@@](=O)(N[C@@H](C)C(=O)OC(C)C)Oc1ccccc1)[C@@]1([2H])O[C@@H](n2ccc(=O)[nH]c2=O)[C@](C)(F)[C@@H]1O [Example 4],100 to 1000 nM

# — US9718851B2, “Deuterated nucleoside/tide derivatives” (Enanta Pharmaceuticals, Inc., priority 2014, dated 2017)
